Experimental data: patent US20250325534A1, “MICROBIOCIDAL TETRAHYDROISOQUINOLINE DERIVATIVES” (SYNGENTA CROP PROTECTION AG, priority 2021, published 2025)

Key:
[1] = test system: Alternaria solani; experiment: Alternaria solani / tomato / leaf disc (early blight); format: in vivo; details: foliar, inoculated 2 days after application, vs untreated control
Procedure: Example B1: Alternaria solani/Tomato/Leaf Disc (Early Blight) Tomato leaf disks cv. Baby are placed on agar in multiwell plates (24-well format) and sprayed with the formulated test compound diluted in water. The leaf disks are inoculated with a spore suspension of the fungus 2 days after application. The inoculated leaf disks are incubated at 23° C./21° C. (day/night) and 80% relative humidity under a light regime of 12 h/12 h (light/dark) in a climate cabinet and the activity of a compound is assessed as percent disease control compared to untreated when an appropriate level of disease damage appears on untreated check disk leaf disks (5-7 days after application).

[2] = test system: Mycosphaerella arachidis; experiment: Mycosphaerella arachidis (Cercospora arachidicola) / liquid culture (early leaf spot); format: cell-based; details: 96 h, photometrically 4-5 days after application, read-out: control of Mycosphaerella arachidis
Procedure: (§1) Example B11: Mycosphaerella arachidis (Cercospora arachidicola)/Liquid Culture (Early Leaf Spot) Conidia of the fungus from cryogenic storage are directly mixed into a nutrient broth (potato dextrose broth). After placing a DMSO solution of test compound into a microtiter plate (96-well format), the nutrient broth containing the fungal spores is added. The test plates are incubated at 24° C. and the inhibition of growth is determined photometrically 4-5 days after application.

[3] = test system: Mycosphaerella graminicola; experiment: Mycosphaerella graminicola (Septoria tritici) / liquid culture (Septoria blotch); format: cell-based; details: Zymoseptoria tritici, 96 h, photometrically 4-5 days after application, read-out: control of Mycosphaerella graminicola
Procedure, shortened: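 Growth inhibition measured by photometry 4-5 days post application, at 24° C incubation. Test compound supplied as DMSO solution; fungal conidia from cryostorage suspended directly in potato dextrose broth as inoculum.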

[4] = test system: Glomerella lagenarium; experiment: Glomerella lagenarium (Colletotrichum lagenarium) / liquid culture (anthracnose); format: cell-based; details: Colletotrichum orbiculare, 72 h, photometrically 3-4 days after application, read-out: control of Glomerella lagenarium
Procedure: as §1, with “B5: Glomerella Lagenarium (Colletotrichum Lagenarium)/Liquid” for “B11: Mycosphaerella arachidis (Cercospora arachidicola)/Liquid”, “(Anthracnose)” for “(Early Leaf Spot)”, “measured” for “determined”, “3-4” for “4-5”

[5] = test system: Monographella nivalis; experiment: Monographella nivalis (Microdochium nivale) / liquid culture (foot rot cereals); format: cell-based; details: 96 h, photometrically 4-5 days after application, read-out: control of Monographella nivalis
Procedure: as §1, with “B10: Monographella nivalis (Microdochium nivale)/Liquid” for “B11: Mycosphaerella arachidis (Cercospora arachidicola)/Liquid”, “(Foot Rot Cereals)” for “(Early Leaf Spot)”

SMILES	pest or weed control at 200 ppm [1]	inhibition of growth at 20 ppm [2]	inhibition of growth at 20 ppm [3]	inhibition of growth at 20 ppm [4]	inhibition of growth at 20 ppm [5]
Cn1cc(C2(C)CN(C(=O)c3nnc(-c4ccc(F)cc4F)s3)Cc3ccccc32)cn1 (stereo not drawn) [Compound P-207, [5-(2,4-difluorophenyl)-1,3,4-thiadiazol-2-yl]-[4-methyl-4-(1-methylpyrazol-4-yl)-1,3-dihydroisoquinolin-2-yl]methanone]	≥ 80%				
Cc1c(C2CN(C(=O)c3cc(-c4cccn4C)on3)Cc3ccccc32)cnn1C (stereo not drawn) [Compound P-231, [4-(1,5-dimethylpyrazol-4-yl)-3,4-dihydro-1H-isoquinolin-2-yl]-[5-(1-methylpyrrol-2-yl)isoxazol-3-yl]methanone]		≥ 80%	≥ 80%	≥ 80%	
Cc1nn(C)cc1C1CN(C(=O)c2cc(-c3ccc(F)cc3F)on2)Cc2ccccc21 (stereo not drawn) [Compound P-121, [5-(2,4-difluorophenyl)isoxazol-3-yl]-[4-(1,3-dimethylpyrazol-4-yl)-3,4-dihydro-1H-isoquinolin-2-yl]methanone]		≥ 80%	≥ 80%	≥ 80%	≥ 80%
Cn1cc(C2CN(C(=O)c3nnc(-c4ccccc4)o3)Cc3ccccc32)cn1 (stereo not drawn) [Compound P-163, [4-(1-methylpyrazol-4-yl)-3,4-dihydro-1H-isoquinolin-2-yl]-(5-phenyl-1,3,4-oxadiazol-2-yl)methanone]	≥ 80%				
Cn1cc(C2CN(C(=O)c3nnc(-c4ccc(F)cc4)o3)Cc3ccccc32)cn1 (stereo not drawn) [Compound P-56, [5-(4-fluorophenyl)-1,3,4-oxadiazol-2-yl]-[4-(1-methylpyrazol-4-yl)-3,4-dihydro-1H-isoquinolin-2-yl]methanone]	≥ 80%				
Cc1c(C2CN(C(=O)c3nnc(C4CCC4)s3)Cc3ccccc32)cnn1C (stereo not drawn) [Compound P-232, (5-cyclobutyl-1,3,4-thiadiazol-2-yl)-[4-(1,5-dimethylpyrazol-4-yl)-3,4-dihydro-1H-isoquinolin-2-yl]methanone]		≥ 80%	≥ 80%	≥ 80%	
COc1ccc2c(c1)CN(C(=O)c1cc(-c3ccccc3)on1)CC2c1cnn(C)c1 (stereo not drawn) [Compound P-50, [7-methoxy-4-(1-methylpyrazol-4-yl)-3,4-dihydro-1H-isoquinolin-2-yl]-(5-phenylisoxazol-3-yl)methanone]		≥ 80%	≥ 80%	≥ 80%	
Cn1cc(C2CN(C(=O)c3cc(-c4ccccc4)on3)Cc3cc(F)ccc32)cn1 (stereo not drawn) [Compound P-138, [7-fluoro-4-(1-methylpyrazol-4-yl)-3,4-dihydro-1H-isoquinolin-2-yl]-(5-phenylisoxazol-3-yl)methanone]		≥ 80%	≥ 80%	≥ 80%	≥ 80%
Cn1cc(C2CN(C(=O)c3cc(-c4ccccc4)on3)Cc3ccc(F)cc32)cn1 (stereo not drawn) [Compound P-139, [6-fluoro-4-(1-methylpyrazol-4-yl)-3,4-dihydro-1H-isoquinolin-2-yl]-(5-phenylisoxazol-3-yl)methanone]		≥ 80%	≥ 80%	≥ 80%	
Cn1cc(C2CN(C(=O)c3cc(-c4ccco4)on3)Cc3ccccc32)cn1 (stereo not drawn) [Compound P-188, [5-(2-furyl)isoxazol-3-yl]-[4-(1-methylpyrazol-4-yl)-3,4-dihydro-1H-isoquinolin-2-yl]methanone]		≥ 80%	≥ 80%	≥ 80%	
Cn1cc(C2CN(C(=O)c3cc(-c4ccccc4)on3)Cc3ccccc32)cn1 (stereo not drawn) [Compound P-205, [4-(1-methylpyrazol-4-yl)-3,4-dihydro-1H-isoquinolin-2-yl]-(5-phenylisoxazol-3-yl)methanone]		≥ 80%	≥ 80%	≥ 80%	≥ 80%
